From patent US20220211657A1, “METHODS OF TREATING GASTROINTESTINAL CANCERS AND TUMORS THEREOF USING COMBINATION THERAPY” (GEORGETOWN UNIVERSITY, priority 2019, published 2022)

Columns and labels:
[1] = system: metastatic pancreatic cancer; conditions: first-line standard of care; cited from earlier work
BRCA1/2-mutated tumors = conditions: out of 24 patients with BRCA1/2-mutated tumors; cited from earlier work
[2] = system: BRCA1/2-mutated pancreatic cancer; conditions: cited from earlier work
[3] = Pharmacokinetic assessment of veliparib (Day 1, 3, 7 samples); type: in vivo, human; conditions: 14 subjects in 5 dosing cohorts
Protocol: For the Phase I portion of the study, plasma samples were obtained from patients on Day 1 (pre-dose), Day 3, and Day 7 for pharmacokinetic (PK) assessment of veliparib. Results were compared to historical controls to identify any effect on veliparib pharmacokinetics by oxaliplatin or 5-fluorouracil. […] Next generation sequencing (NGS) of cancer-related genes was performed on tumor samples. Results from patients were captured, if ordered by the treating physician prior to enrollment, and sequencing was performed commercially by Foundation Medicine (FM), Caris Life Sciences, or through commercial germline testing labs such as Myriad or Invitae. […] Patients were defined as harboring HR-DDR mutations if a known pathogenic mutation in one of the HR-DDR genes (including but not limited to: ARID1A, ATM, ATRX, MRE11A, NBN, PTEN, RAD50/51/51B, BARD1, BLM, BRCA1, BRCA2, BRIP1, FANCA/C/D2/E/F/G/L, PALB2, WRN, CHEK2, CHEK1, BAP1, FAM175A, SLX4, MLL2, or XRCC) was identified in a blood sample (germline) or tumor sample (somatic).

[4] = Phase I dose escalation of veliparib plus FOLFOX (dose limiting toxicities, recommended Phase II dose); type: in vivo
Protocol: The study was designed as a single center, Phase I/II, open label study of veliparib plus FOLFOX. At the time of study initiation, the dose and schedule for modified FOLFOX (de Gramont et al., “Leucovorin and Fluorouracil With or Without Oxaliplatin as First-Line Treatment in Advanced Colorectal Cancer,” J. Clin. Oncol. 18:2938-2947 (2000), which is hereby incorporated by reference in its entirety) was used (5-fluorouracil bolus 400 mg/m^2 Day 1; leucovorin 400 mg/m^2 Day 1; oxaliplatin 85 mg/m^2 Day 1; and 5-fluorouracil 2400 mg/m^2 continuous infusion over 46 hours, Days 1-3). Each cycle was 14 days. […] With regards to the veliparib, for the Phase I portion, the dose of veliparib was escalated in a standard 3+3 design from the lowest dose of 40 mg twice a day (BID) days 1-7 of each 14-day cycle. Dose levels were 40 mg, 60 mg, 80 mg, 100 mg, 150 mg, 200 mg, and 250 mg. For the Phase II portion, the recommended Phase II dose (RP2D) was 200 mg of veliparib, though the protocol did allow for stepwise de-escalation to 150 mg and then to 100 mg for toxicity after the first cycle. […] Tumor response was assessed radiographically every 8-12 weeks using Response Evaluation Criteria in Solid Tumors criteria version 1.1 (Eisenhauer et al., “New Response Evaluation Criteria in Solid Tumours: Revised RECIST Guideline (Version 1.1),” Eur. J. Cancer 45:228-247 (2009), which is hereby incorporated by reference in its entirety). […] The primary objective of the Phase I portion was to determine the recommended Phase II dose, with the primary endpoint being adverse events, as measured by the National Cancer Institute Common Terminology Criteria for Adverse Events, Version 4.03, which is hereby incorporated by reference in its entirety. […]
The primary objective of the Phase I portion of the trial was to determine the recommended Phase II dose, by assessing the safety and tolerability as determined by adverse events, defined by the National Cancer Institute Common Terminology Criteria for Adverse Events, Version 4.03, which is hereby incorporated by reference in its entirety. […]

For `Nc1ccn([C@@H]2O[C@H](CO)[C@@H](O)C2(F)F)c(=O)n1` [gemcitabine], the response rate [1] is given as 7%.

In the case of `O=C(c1cc(Cc2n[nH]c(=O)c3ccccc23)ccc1F)N1CCN(C(=O)C2CC2)CC1` [olaparib], the patients who responded (BRCA1/2-mutated tumors) is given as 4 patients.

For `CNCc1ccc(-c2[nH]c3cc(F)cc4c3c2CCNC4=O)cc1` [rucaparib], the “patients who did not respond to platinum but did respond” value ([2]; in vivo) is given as “two” and the responses ([2]; out of 19 patients with BRCA1/2-mutated pancreatic cancer) is given as 4.

For `C[C@]1(c2nc3c(C(N)=O)cccc3[nH]2)CCCN1` [veliparib], the “impact of co-administration of FOLFOX on veliparib pharmacokinetics” value [3] was “no apparent impact”, the “protocol-defined dose limiting toxicity” value ([4]; human, in vivo) was “treatment delay of >3 weeks” and the dose limiting toxicities ([4]; in vivo) was “one”. The “recommended Phase II dose” value ([4]; veliparib BID days 1-7 of each 14-day cycle plus FOLFOX) was 200 mg.
